These results are taken from patent US20140113824A1, “BICYCLIC (THIO)CARBONYLAMIDINES” (BAYER INTELLECTUAL PROPERTY GMBH, priority 2011, published 2014).

Where two headings read alike, the source gives them in different places.

Holding throughout (format): in vivo
Assay [1] has as its system green peach aphid (Myzus persicae). Nature of the assay: Myzus test (MYZUPE spray treatment). Particulars: for pest or weed control at 500 g/ha: Myzus persicae, foliar, 144 h, read-out: effect in % (aphids killed). The method, then: 2. Myzus Test (MYZUPE Spray Treatment)
(§1) Solvents: 78.0 parts by weight of acetone • • 1.5 parts by weight of dimethylformamide Emulsifier: 0.5 part by weight of alkylaryl polyglycol ether
(§2) To produce a suitable preparation of active compound, 1 part by weight of active compound is mixed with the stated amounts of solvent and emulsifier, and the concentrate is diluted with emulsifier-containing water to the desired concentration.
Disks of Chinese cabbage leaves (Brassica pekinensis) infested by all stages of the green peach aphid (Myzus persicae) are sprayed with an active compound preparation of the desired concentration.
After 6 days, the effect in % is determined. 100% means that all of the aphids have been killed; 0% means that none of the aphids have been killed.

The next assay deals with Lucilia cuprina larvae. As to the kind of experiment: Lucilia cuprina test (LUCICU). Particulars: 100 ppm; treated horse meat; after 48 hours. On the procedure: 5. Lucilia cuprina Test (LUCICU)
(§3) Solvent: dimethyl sulfoxide
(§4) To produce a suitable preparation of active compound, 10 mg of active compound are mixed with 0.5 ml of dimethyl sulfoxide, and the concentrate is diluted with water to the desired concentration.
Vessels containing horse meat treated with the active compound preparation of the desired concentration are populated with about 20 Lucilia cuprina larvae.
After 48 hours, the kill in % is determined 100% means that all larvae have been killed; 0% means that no larvae have been killed.

Assay [2] has as its system larvae of the mustard beetle (Phaedon cochleariae). As to the kind of experiment: Phaedon test (PHAECO spray treatment). Particulars: application rate 500 g/ha; spray on Chinese cabbage leaf disks; after 7 days. On the procedure:
1. Phaedon Test (PHAECO Spray Treatment)
as §1, §2
Disks of Chinese cabbage leaves (Brassica pekinensis) are sprayed with an active compound preparation of the desired concentration and, after drying, populated with larvae of the mustard beetle (Phaedon cochleariae).
After 7 days, the effect in % is determined. 100% means that all beetle larvae have been killed; 0% means that none of the beetle larvae have been killed.

For another assay, the system named is Cooperia curticei larvae. As to the kind of experiment: Cooperia curticei test (COOPCU). The following applies: 100 ppm in Ringer solution; after 5 days. The method, then:
7. Cooperia curticei Test (COOPCU)
as §3
To produce a suitable preparation of active compound, 10 mg of active compound are mixed with 0.5 ml of dimethyl sulfoxide, and the concentrate is diluted with Ringer solution to the desired concentration. Vessels containing the active compound preparation of the desired concentration are populated with about 40 Cooperia curticei larvae.
After 5 days, the kill in % is determined. 100% means that all larvae have been killed; 0% means that no larvae have been killed.

Another assay concerns adult Musca domestica. As to the kind of experiment: Musca domestica test (MUSCDO). The following applies: 100 ppm; treated sponge; after 2 days. On the procedure:
6. Musca domestica Test (MUSCDO)
as §3, §4
Vessels containing a sponge treated with the active compound formulation of the desired concentration are populated with adult Musca domestica.
After 2 days, the kill in % is determined. 100% means that all of the flies have been killed; 0% means that none of the flies have been killed.

Assay [3] deals with adult fleas (Ctenocephalides felis). Nature of the assay: Ctenocephalides felis; oral (CTECFE). The following applies: 100 ppm in citrated cattle blood, after 2 days. On the procedure: 4. Ctenocephalides felis; Oral (CTECFE)
Solvents: 1 part by weight of dimethyl sulfoxide
To produce a suitable preparation of active compound, 10 mg of active compound are mixed with 0.5 ml of dimethyl sulfoxide. A portion of the concentrate is diluted with citrated cattle blood, and the desired concentration is prepared.
About 20 unfed adult fleas (Ctenocephalides felis) are placed into a chamber which is closed at the top and bottom with gauze. A metal cylinder whose bottom end is closed with parafilm is placed onto the chamber. The cylinder contains the blood/active compound preparation, which can be taken up by the fleas through the parafilm membrane.
After 2 days, the kill in % is determined 100% means that all of the fleas have been killed; 0% means that none of the fleas have been killed.

Assay [4] deals with greenhouse red spider mite (Tetranychus urticae). Nature of the assay: Tetranychus test, OP-resistant (TETRUR spray treatment). The following applies: application rate 100 g/ha; spray on infested bean leaf disks; after 6 days. The method, then: 3. Tetranychus Test, OP-Resistant (TETRUR Spray Treatment)
as §1, §2
Disks of bean leaves (Phaseolus vulgaris) which are infested by all stages of the greenhouse red spider mite (Tetranychus urticae) are sprayed with an active compound preparation of the desired concentration.
After 6 days, the effect in % is determined. 100% here means that all of the spider mites have been killed. 0% means that none of the spider mites have been killed.

Setting [5] is: application rate 500 g/ha, spray on infested Chinese cabbage leaf disks, after 6 days.

`O=c1nc2n(Cc3ccc(C(F)(F)F)nc3)cccc-2o1` [Example I-1, 4-(6-Trifluoromethylpyridin-3-ylmethyl)oxazolo[4,5-b]pyridin-2(4H)-one]: the pest or weed control at 500 g/ha in assay [1] (setting [5]) amounted to 100%.
For the compound `O=c1nc2n(Cc3cnc(Cl)c(Cl)c3)cccc-2o1` [Example I-2, 4-(5,6-Dichloropyridin-3-ylmethyl)oxazolo[4,5-b]pyridin-2(4H)-one], the “kill in % (larvae killed)” value in the assay on Lucilia cuprina larvae is given as 100%. Further, the “effect in % (beetle larvae killed)” value in assay [2] turned out to be 100%. Also, in assay [1] (in Brassica rapa), the pest or weed control at 500 g/ha amounted to 100%.
Turning to `O=c1nc2n(Cc3ccc(Cl)nc3)cccc-2o1` [Example I-3, 4-(6-Chloropyridin-3-ylmethyl)oxazolo[4,5-b]pyridin-2(4H)-one], the “kill in % (larvae killed)” value in the assay with Cooperia curticei larvae came out at 80%; in the assay with Lucilia cuprina larvae, 100%. Besides, the “effect in % (beetle larvae killed)” value in assay [2] is 100%. In assay [1] (in Brassica rapa), the pest or weed control at 500 g/ha is 100%.
Consider `O=c1nc2n(Cc3cnc(Cl)c(F)c3)cccc-2o1` [Example I-4, 4-(6-Chloro-5-fluoropyridin-3-ylmethyl)oxazolo[4,5-b]pyridin-2(4H)-one], for which the “kill in % (larvae killed)” value in the assay with Lucilia cuprina larvae is given as 100%. The “effect in % (beetle larvae killed)” value in assay [2] amounted to 100%. Also, in the assay with adult Musca domestica, the “kill in % (flies killed)” value amounted to 80%. Besides, the pest or weed control at 500 g/ha in assay [1] (in Brassica rapa) was 100%.
On to `Cc1cnc(Cn2cccc3oc(=O)nc2-3)cn1` [Example I-5, 4-(5-Methylpyrazin-2-ylmethyl)oxazolo[4,5-b]pyridin-2(4H)-one], for which the pest or weed control at 500 g/ha in assay [1] (setting [5]) amounted to 100%.
As to `O=c1nc2n(Cc3cnc(Cl)s3)cccc-2o1` [Example I-6, 4-(2-Chloro-1,3-thiazol-5-ylmethyl)oxazolo[4,5-b]pyridin-2(4H)-one], the “kill in % (larvae killed)” value with Lucilia cuprina larvae is listed as 100%. Further, the “effect in % (beetle larvae killed)” value in assay [2] was found to be 100%. In assay [1] (in Brassica rapa), the pest or weed control at 500 g/ha amounted to 100%. Further, the “kill in % (fleas killed)” value in assay [3] came to 80%.
`O=c1nc2n(Cc3ccc(F)nc3)cccc-2o1` [Example I-9, 4-(6-Fluoropyridin-3-ylmethyl)oxazolo[4,5-b]pyridin-2(4H)-one]: the “kill in % (larvae killed)” value with Lucilia cuprina larvae came out at 100%. Further, the pest or weed control at 500 g/ha in assay [1] (in Brassica rapa) amounted to 100%.
On to `O=c1nc2n(Cc3ccc(Br)nc3)cccc-2o1` [Example I-10, 4-(6-Bromopyridin-3-ylmethyl)oxazolo[4,5-b]pyridin-2(4H)-one], for which the “effect in % (beetle larvae killed)” value in assay [2] is 100%. Moreover, the pest or weed control at 500 g/ha in assay [1] (in Brassica rapa) is 100%.
Turning to `O=c1nc2n(Cc3ccc(Cl)nc3)cc(Br)cc-2o1` [Example I-11, 6-Bromo-4-(6-chloropyridin-3-ylmethyl)oxazolo[4,5-b]pyridin-2(4H)-one], the pest or weed control at 500 g/ha in assay [1] (in Brassica rapa) worked out at 100%.
Take `O=C1N=C2C(CCCN2Cc2ccc(Cl)nc2)O1` (stereo not shown) [Example I-16, 4-(6-Chloropyridin-3-ylmethyl)-5,6,7,7a-tetrahydrooxazolo[4,5-b]-pyridin-2(4H)-one]: the “effect in % (spider mites killed)” value in assay [4] amounted to 100%. Further, the “effect in % (beetle larvae killed)” value in assay [2] is listed as 100%. In assay [1] (in Brassica rapa), the pest or weed control at 500 g/ha is 100%.
On to `CC(=O)N(Cc1ccc(Cl)nc1)c1ncccc1OCc1ccc(Cl)nc1` [Example I-16a, 2-[(N-acetyl, N′-(6-chloropyridin-3-ylmethyl)amino)]-3-(6-chloropyridin-3-ylmethoxy)pyridine], for which the “effect in % (spider mites killed)” value in assay [4] is reported as 90%.
`O=c1oc2cccnc2n1Cc1cnc(Cl)c(Cl)c1` [IV-2, 3-(5,6-dichloropyridin-3-ylmethyl)oxazolo[4,5-b]-2(3H)-one]: the “effect in % (aphids killed)” value in assay [1] (setting [5]) worked out at 100%.
For `O=c1oc2cccnc2n1Cc1ccc(C(F)(F)F)nc1` [IV-I, 3-(6-trifluoromethylpyridin-3-ylmethyl)oxazolo[4,5-b]-2(3H)-one], the “effect in % (aphids killed)” value in assay [1] (setting [5]) was found to be 90%.
